Data as given in patent US20240246964A1 (Arbutus Biopharma Corporation, priority 2021, published 2024).

These compounds were tested against human PD-L1 (Homo sapiens (Human), UniProt Q9NZQ7) (assay: T cell activation luciferase reporter cell culture system (T Cell Activation Assay)). Conditions: luciferase reporter assay; PD-L1 aAPC/CHO-K1 cells with PD-1 effector Jurkat T cells.
Format: cell-based

Sequence of human PD-L1 (Q9NZQ7 19-290): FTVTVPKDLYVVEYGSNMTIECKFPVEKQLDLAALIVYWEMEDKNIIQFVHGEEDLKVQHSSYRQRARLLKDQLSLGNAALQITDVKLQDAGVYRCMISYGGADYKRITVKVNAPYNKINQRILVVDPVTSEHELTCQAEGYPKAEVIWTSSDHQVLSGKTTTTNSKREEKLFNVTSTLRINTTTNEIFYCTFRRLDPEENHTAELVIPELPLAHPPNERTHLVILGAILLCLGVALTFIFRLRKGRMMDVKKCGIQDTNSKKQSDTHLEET

Structure (SMILES)	EC50 [nM]
COc1cc(-c2nccc(-c3cccc(NC(=O)c4ccc(CNC5CCOCC5)cn4)c3Cl)c2Cl)ccc1CNC1CCOCC1 [Example 674, N-(2-Chloro-3-(3-chloro-2-(3-methoxy-4-(((tetrahydro-2H-pyran-4-yl)amino)methyl)phenyl)pyridin-4-yl)phenyl)-5-(((tetrahydro-2H-pyran-4-yl)amino)methyl)picolinamide]	337
CNCc1ccc(C(=O)Nc2cccc(-c3ccnc(-c4ccc(CNC)c(OC)c4)c3Cl)c2C)nc1 [Example 696, N-(3-(3-Chloro-2-(3-methoxy-4-((methylamino)methyl)phenyl)pyridin-4-yl)-2-methylphenyl)-5-((methylamino)methyl)picolinamide]	244
COc1cc(-c2nccc(-c3cccc(-c4ccc(CN5CC6(C5)CN(C(C)=O)C6)c(OC)n4)c3Cl)c2Cl)ccc1CN1CCC(NC(C)=O)CC1 [Example 402, N-(1-(4-(4-(3-(5-((6-acetyl-2,6-diazaspiro[3.3]heptan-2-yl)methyl)-6-methoxypyridin-2-yl)-2-chlorophenyl)-3-chloropyridin-2-yl)-2-methoxybenzyl)piperidin-4-yl)acetamide]	44.6
COc1nc(-c2cccc(-c3ccnc(-c4ccc5c(c4)N(C)CCNC5)c3Cl)c2Cl)ccc1CNC[C@@H]1CCC(=O)N1 [Cmpd 3, (S)-5-((((6-(2-chloro-3-(3-chloro-2-(1-methyl-2,3,4,5-tetrahydro-1H-benzo[e][1,4]diazepin-8-yl)pyridin-4-yl)phenyl)-2-methoxypyridin-3-yl)methyl)amino)methyl)pyrrolidin-2-one]	42.9
COc1cc(-c2nccc(-c3cccc(-c4ccc5c(CNCC6CCOCC6)cn(C)c5n4)c3Cl)c2Cl)ccc1CNC1CCN(C(C)=O)CC1 [Example 557, 1-(4-((4-(3-chloro-4-(2-chloro-3-(1-methyl-3-((((tetrahydro-2H-pyran-4-yl)methyl)amino)methyl)-1H-pyrrolo[2,3-b]pyridin-6-yl)phenyl)pyridin-2-yl)-2-methoxybenzyl)amino)piperidin-1-yl)ethan-1-one]	378
COc1nc(-c2nccc(-c3cccc(NC(=O)c4cn(C)c(=O)n(C)c4=O)c3Cl)c2Cl)ccc1CNC[C@@H]1CCC(=O)N1 [Example 738, (S)—N-(2-Chloro-3-(3-chloro-6′-methoxy-5′-((((5-oxopyrrolidin-2-yl)methyl)amino)methyl)-[2,2′-bipyridin]-4-yl)phenyl)-1,3-dimethyl-2,4-dioxo-1,2,3,4-tetrahydropyrimidine-5-carboxamide]	272
COc1cc(-c2ncnc(-c3cccc(-c4ccc(CN5CC6(CNC(=O)C6)C5)c(OC)n4)c3Cl)c2C)ccc1CN1CC2(CNC(=O)C2)C1 [Example 535, 2-((6-(2-Chloro-3-(6-(3-methoxy-4-((7-oxo-2,6-diazaspiro[3.4]octan-2-yl)methyl)phenyl)-5-methylpyrimidin-4-yl)phenyl)-2-methoxypyridin-3-yl)methyl)-2,6-diazaspiro[3.4]octan-7-one]	1060
COC(=O)CCN1CCc2cc(-c3nccc(-c4cccc(-c5ccc(CNC[C@H](C)O)c(OC)n5)c4Cl)c3Cl)cc(OC)c2C1 [Example 272, Methyl (S)-3-(6-(3-chloro-4-(2-chloro-3-(5-(((2-hydroxypropyl)amino)methyl)-6-methoxypyridin-2-yl)phenyl)pyridin-2-yl)-8-methoxy-3,4-dihydroisoquinolin-2(1H)-yl)propanoate]	88.2
COc1nc(-c2cccc(-c3ccnc(-c4cc(OC)c5nc(CN6CC(C(=O)O)C6)cn5c4)c3Cl)c2Cl)ccc1CNC[C@@H]1CCC(=O)N1 [Example 350, (S)-1-((6-(3-Chloro-4-(2-chloro-3-(6-methoxy-5-((((5-oxopyrrolidin-2-yl)methyl)amino)methyl)pyridin-2-yl)phenyl)pyridin-2-yl)-8-methoxyimidazo[1,2-a]pyridin-2-yl)methyl)azetidine-3-carboxylic acid]	89.2
COc1nc(O[C@H]2CCc3c(-c4nccc(-c5ccc6c(CNC[C@@H]7CCC(=O)N7)cn(C)c6n5)c4Cl)cccc32)c(C(F)(F)F)cc1CNC[C@@H]1CCC(=O)N1 [Example 545, (S)-5-((((6-(3-Chloro-2-((S)-1-((6-methoxy-5-(((((S)-5-oxopyrrolidin-2-yl)methyl)amino)methyl)-3-(trifluoromethyl)pyridin-2-yl)oxy)-2,3-dihydro-1H-inden-4-yl)pyridin-4-yl)-1-methyl-1H-pyrrolo[2,3-b]pyridin-3-yl)methyl)amino)methyl)pyrrolidin-2-one]	21.3
COc1cc(-c2nccc(-c3cccc(-c4cc(Cl)c(CNC[C@@H]5CCC(=O)N5)c(OC)n4)c3Cl)c2Cl)cc2c1CN(C[C@H](C)O)CC2 [Cmpd 86, (S)-5-((((4-chloro-6-(2-chloro-3-(3-chloro-2-(2-((S)-2-hydroxypropyl)-8-methoxy-1,2,3,4-tetrahydroisoquinolin-6-yl)pyridin-4-yl)phenyl)-2-methoxypyridin-3-yl)methyl)amino)methyl)pyrrolidin-2-one]	27.5
COc1cc(-c2nccc(-c3cccc(-c4ccc5c(CN(C)C6CCN(C(C)=O)CC6)cn(C)c5n4)c3Cl)c2Cl)ccc1CNC[C@@H]1CCC(=O)N1 [Cmpd 92, (S)-5-(((4-(4-(3-(3-(((1-acetylpiperidin-4-yl)(methyl)amino)methyl)-1-methyl-1H-pyrrolo[2,3-b]pyridin-6-yl)-2-chlorophenyl)-3-chloropyridin-2-yl)-2-methoxybenzyl)amino)methyl)pyrrolidin-2-one]	10.1
COc1nc(-c2cccc(-c3ccnc(-c4cc5c(=O)n(C)c(CN6CC(C)(O)C6)nn5c4)c3Cl)c2Cl)ccc1CN[C@H]1CC[C@H](O)CC1 [Example 234, 6-(3-Chloro-4-(2-chloro-3-(5-((((1r,4r)-4-hydroxycyclohexyl)amino)methyl)-6-methoxypyridin-2-yl)phenyl)pyridin-2-yl)-2-((3-hydroxy-3-methylazetidin-1-yl)methyl)-3-methylpyrrolo[2,1-f][1,2,4]triazin-4(3H)-one]	143
COc1cc(-c2nccc(-c3cccc(-c4ccn5c(=O)c(CNC[C@@H]6CCC(=O)N6)cnc5c4)c3Cl)c2Cl)ccc1CNC[C@@H]1CCC(=O)N1 [Cmpd 1, 8-(2-chloro-3-(3-chloro-2-(3-methoxy-4-(((((S)-5-oxopyrrolidin-2-yl)methyl)amino)methyl)phenyl)pyridin-4-yl)phenyl)-3-(((((S)-5-oxopyrrolidin-2-yl)methyl)amino)methyl)-4H-pyrido[1,2-a]pyrimidin-4-one]	300
COc1cc(-c2ncnc(-c3cccc(-c4ccc(CNC[C@@H]5CCC(=O)N5)c(OC)n4)c3Cl)c2Cl)ccc1CN1CC2(CNC(=O)C2)C1 [Example 742, (S)-2-(4-(5-Chloro-6-(2-chloro-3-(6-methoxy-5-((((5-oxopyrrolidin-2-yl)methyl)amino)methyl)pyridin-2-yl)phenyl)pyrimidin-4-yl)-2-methoxybenzyl)-2,6-diazaspiro[3.4]octan-7-one]	28.6

Next, values leading:

EC50 [nM]	Structure (SMILES)
226	COc1cc(-c2nccc(-c3cccc(-c4ccc(CN5CC6(COC6)C5)c(OC)n4)c3Cl)c2C)ccc1CN1CC2(COC2)C1 [Example 464, 6-(4-(4-(3-(5-((2-Oxa-6-azaspiro[3.3]heptan-6-yl)methyl)-6-methoxypyridin-2-yl)-2-chlorophenyl)-3-methylpyridin-2-yl)-2-methoxybenzyl)-2-oxa-6-azaspiro[3.3]heptane]
17.8	COc1cc(-c2nccc(-c3cccc(-c4ccc(CN[C@H]5C[C@](C)(O)C5)c(OC)n4)c3Cl)c2Cl)ccc1CN[C@H]1C[C@](C)(O)C1 [Example 385, (1r,3r)-3-(((6-(2-Chloro-3-(3-chloro-2-(4-((((1r,3r)-3-hydroxy-3-methylcyclobutyl)amino)methyl)-3-methoxyphenyl)pyridin-4-yl)phenyl)-2-methoxypyridin-3-yl)methyl)amino)-1-methylcyclobutan-1-ol]
≥ 10000	COc1cc(-c2nccc(-c3cccc(-c4ccc(CNCCO)c(OC)n4)c3C(F)(F)F)c2Cl)ccc1CNCCO [Example 612, 2-(((6-(3-(3-Chloro-2-(4-(((2-hydroxyethyl)amino)methyl)-3-methoxyphenyl)pyridin-4-yl)-2-(trifluoromethyl)phenyl)-2-methoxypyridin-3-yl)methyl)amino)ethan-1-ol]
25.2	COc1cc(-c2nccc(-c3cccc(-c4ccc(CNC5CCN(C(C)=O)CC5)c(OC)n4)c3Cl)c2Cl)ccc1CN1CC2(CNC(=O)C2)C1 [Example 244, 2-(4-(4-(3-(5-(((1-acetylpiperidin-4-yl)amino)methyl)-6-methoxypyridin-2-yl)-2-chlorophenyl)-3-chloropyridin-2-yl)-2-methoxybenzyl)-2,6-diazaspiro[3.4]octan-7-one]
195	COc1cc(-c2ncnc(-c3cccc(-c4ccc(CNCCO)c(OC)n4)c3Cl)c2Cl)ccc1CN1CC2(CNC(=O)C2)C1 [Example 711, 2-(4-(5-Chloro-6-(2-chloro-3-(5-(((2-hydroxyethyl)amino)methyl)-6-methoxypyridin-2-yl)phenyl)pyrimidin-4-yl)-2-methoxybenzyl)-2,6-diazaspiro[3.4]octan-7-one]
59.3	COc1cc(-c2nccc(-c3cccc(-c4ccc(CNC5CCN(C(C)=O)CC5)c(OC)n4)c3Cl)c2Cl)ccc1CNCCN1CCNC(=O)C1 [Example 479, 4-(2-((4-(4-(3-(5-(((1-Acetylpiperidin-4-yl)amino)methyl)-6-methoxypyridin-2-yl)-2-chlorophenyl)-3-chloropyridin-2-yl)-2-methoxybenzyl)amino)ethyl)piperazin-2-one]
≥ 10000	CNCc1ccc(-c2ccnc(-c3cccc4c3CCC[C@@H]4Nc3nc(OC)c(CNC)cc3C(F)(F)F)c2Cl)nc1OC [Example 732, (S)—N-(5-(3′-Chloro-6-methoxy-5-((methylamino)methyl)-[2,4′-bipyridin]-2′-yl)-1,2,3,4-tetrahydronaphthalen-1-yl)-6-methoxy-5-((methylamino)methyl)-3-(trifluoromethyl)pyridin-2-amine]
347	COc1cc(-c2nccc(-c3cccc(-c4ccc(CNC5CCCCC5)c(OC)n4)c3Cl)c2Cl)ccc1CNC1CCCCC1 [Example 524, N-((6-(2-Chloro-3-(3-chloro-2-(4-((cyclohexylamino)methyl)-3-methoxyphenyl)pyridin-4-yl)phenyl)-2-methoxypyridin-3-yl)methyl)cyclohexanamine]
